Measured values reported in patent publication US10202360B2 (CELGENE QUANTICEL RESEARCH, INC., priority 2016, dated 2019).

target: CREBBP (Homo sapiens (Human), UniProt Q92793); assay: In vitro enzyme inhibition assay - CREBBP inhibition (AlphaScreen, biotinylated H4-tetraacetyl peptide); assay type: binding; conditions: Table 28; AlphaScreen, H4-tetraacetyl peptide
Outline: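 Displacement of 20 nM biotinylated tetraacetyl-H4 peptide from 50 nM E. coli-expressed His-CREBBP, measured by AlphaScreen after bead equilibration for 2 h.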

Chain of CREBBP (Q92793 1081-1197): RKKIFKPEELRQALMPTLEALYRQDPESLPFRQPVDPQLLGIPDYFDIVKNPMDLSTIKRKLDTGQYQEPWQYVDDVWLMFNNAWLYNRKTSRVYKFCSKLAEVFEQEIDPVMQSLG

IC50, < 500 nM:
Cc1cccc(F)c1Oc1nc(NC(C)C)cc(-c2ccc(=O)n(C)c2)n1 [Example 281, 5-(2-(2-fluoro-6-methylphenoxy)-6-(isopropylamino)pyrimidin-4-yl)-1-methylpyridin-2(1H)-one]
Cc1cccc(Cl)c1Oc1nc(NC(C)c2ccccc2)cc(-c2ccc(=O)n(C)c2)n1 (centres unmarked) [Example 282, 5-(2-(2-chloro-6-methylphenoxy)-6-((1-phenylethyl)amino)pyrimidin-4-yl)-1-methylpyridin-2(1H)-one]
Cc1cccc(Cl)c1Oc1nc(NC(C)C)cc(-c2ccc(=O)n(C)c2)n1 [Example 283, 5-(2-(2-chloro-6-methylphenoxy)-6-(isopropylamino)pyrimidin-4-yl)-1-methylpyridin-2(1H)-one]
Cc1cccc(Cl)c1Oc1nc(NC2CCCC2)cc(-c2ccc(=O)n(C)c2)n1 [Example 284, 5-(2-(2-chloro-6-methylphenoxy)-6-(cyclopentylamino)pyrimidin-4-yl)-1-methylpyridin-2(1H)-one]
Cc1cccc(F)c1Oc1nc(NC2CCCC2)cc(-c2ccc(=O)n(C)c2)n1 [Example 285, 5-(6-(cyclopentylamino)-2-(2-fluoro-6-methylphenoxy)pyrimidin-4-yl)-1-methylpyridin-2(1H)-one]
Cc1cccc(F)c1Oc1nc(NCC2CCCc3ccccc32)cc(-c2ccc(=O)n(C)c2)n1 (centres unmarked) [Example 286, 5-(2-(2-fluoro-6-methylphenoxy)-6-(((1,2,3,4-tetrahydronaphthalen-1-yl)methyl)amino)pyrimidin-4-yl)-1-methylpyridin-2(1H)-one]
Cc1cccc(F)c1Oc1nc(N[C@H]2CCc3ccccc32)cc(-c2ccc(=O)n(C)c2)n1 [Example 287, (S)-5-(6-((2,3-dihydro-1H-inden-1-yl)amino)-2-(2-fluoro-6-methylphenoxy)pyrimidin-4-yl)-1-methylpyridin-2(1H)-one]
Cc1cccc(C(C)Nc2cc(-c3ccc(=O)n(C)c3)nc(Oc3c(C)cccc3F)n2)n1 (centres unmarked) [Example 288, 5-(2-(2-fluoro-6-methylphenoxy)-6-((1-(6-methylpyridin-2-yl)ethyl)amino)pyrimidin-4-yl)-1-methylpyridin-2(1H)-one]
Cc1cccc(CNc2cc(-c3ccc(=O)n(C)c3)nc(Oc3c(C)cccc3F)n2)n1 [Example 289, 5-(2-(2-fluoro-6-methylphenoxy)-6-(((6-methylpyridin-2-yl)methyl)amino)pyrimidin-4-yl)-1-methylpyridin-2(1H)-one]
Cc1ccc(CNc2cc(-c3ccc(=O)n(C)c3)nc(Oc3c(C)cccc3F)n2)cn1 [Example 290, 5-(2-(2-fluoro-6-methylphenoxy)-6-(((6-methylpyridin-3-yl)methyl)amino)pyrimidin-4-yl)-1-methylpyridin-2(1H)-one]
CCNc1cc(-c2ccc(=O)n(C)c2)nc(Oc2c(C)cccc2F)n1 [Example 291, 5-[6-Ethylamino-2-(2-fluoro-6-methyl-phenoxy)-pyrimidin-4-yl]-1-methyl-1H-pyridin-2-one]
Cc1cccc(F)c1Oc1nc(NCc2ccccc2)cc(-c2ccc(=O)n(C)c2)n1 [Example 292, 5-[6-Benzylamino-2-(2-fluoro-6-methyl-phenoxy)-pyrimidin-4-yl]-1-methyl-1H-pyridin-2-one]
Cc1cccc(F)c1Oc1nc(-c2ccc(=O)n(C)c2)cc(N(C)Cc2ccccc2)n1 [Example 293, 5-[6-(Benzyl-methyl-amino)-2-(2-fluoro-6-methyl-phenoxy)-pyrimidin-4-yl]-1-methyl-1H-pyridin-2-one]
Cc1cccc(F)c1Oc1nc(N)cc(-c2cc(C)c(=O)n(C)c2)n1 [Example 294, 5-[6-Amino-2-(2-fluoro-6-methyl-phenoxy)-pyrimidin-4-yl]-1,3-dimethyl-1H-pyridin-2-one]
CCNc1cc(-c2cc(C)c(=O)n(C)c2)nc(Oc2c(C)cccc2F)n1 [Example 295, 5-[6-Ethylamino-2-(2-fluoro-6-methyl-phenoxy)-pyrimidin-4-yl]-1,3-dimethyl-1H-pyridin-2-one]
Cc1cccc(F)c1Oc1nc(NCc2ccccc2)cc(-c2cc(C)c(=O)n(C)c2)n1 [Example 296, 5-[6-Benzylamino-2-(2-fluoro-6-methyl-phenoxy)-pyrimidin-4-yl]-1,3-dimethyl-1H-pyridin-2-one]
Cc1cccc(F)c1Oc1nc(-c2cc(C)c(=O)n(C)c2)cc(N(C)Cc2ccccc2)n1 [Example 297, 5-[6-(Benzyl-methyl-amino)-2-(2-fluoro-6-methyl-phenoxy)-pyrimidin-4-yl]-1,3-dimethyl-1H-pyridin-2-one]
Cc1cccc(F)c1Oc1nc(NC(C)c2ccccc2)cc(-c2ccc(=O)n(C)c2)n1 (centres unmarked) [Example 298, 5-[2-(2-Fluoro-6-methyl-phenoxy)-6-(1-phenyl-ethylamino)-pyrimidin-4-yl]-1-methyl-1H-pyridin-2-one]
Cc1ccccc1C(C)Nc1cc(-c2ccc(=O)n(C)c2)nc(Oc2c(C)cccc2F)n1 (centres unmarked) [Example 299, 5-[2-(2-Fluoro-6-methyl-phenoxy)-6-(1-o-tolyl-ethylamino)-pyrimidin-4-yl]-1-methyl-1H-pyridin-2-one]
Cc1cccc(C)c1CNc1cc(-c2ccc(=O)n(C)c2)nc(Oc2c(C)cccc2F)n1 [Example 300, 5-[6-(2,6-Dimethyl-benzylamino)-2-(2-fluoro-6-methyl-phenoxy)-pyrimidin-4-yl]-1-methyl-1H-pyridin-2-one]
Cc1ccc(C)c(CNc2cc(-c3ccc(=O)n(C)c3)nc(Oc3c(C)cccc3F)n2)c1 [Example 301, 5-[6-(2,5-Dimethyl-benzylamino)-2-(2-fluoro-6-methyl-phenoxy)-pyrimidin-4-yl]-1-methyl-1H-pyridin-2-one]
Cc1cccc(F)c1Oc1nc(NCc2ccccn2)cc(-c2ccc(=O)n(C)c2)n1 [Example 302, 5-{2-(2-Fluoro-6-methyl-phenoxy)-6-[(pyridin-2-ylmethyl)-amino]-pyrimidin-4-yl}-1-methyl-1H-pyridin-2-one]
Cc1cccc(F)c1Oc1nc(NCc2cccnc2)cc(-c2ccc(=O)n(C)c2)n1 [Example 303, 5-{2-(2-Fluoro-6-methyl-phenoxy)-6-[(pyridin-3-ylmethyl)-amino]-pyrimidin-4-yl}-1-methyl-1H-pyridin-2-one]
CCCCNc1cc(-c2ccc(=O)n(C)c2)nc(Oc2c(C)cccc2F)n1 [Example 304, 5-[6-Butylamino-2-(2-fluoro-6-methyl-phenoxy)-pyrimidin-4-yl]-1-methyl-1H-pyridin-2-one]
CCC[C@@H](C)Nc1cc(-c2ccc(=O)n(C)c2)nc(Oc2c(C)cccc2F)n1 [Example 305]
Cc1cccc(F)c1Oc1nc(N[C@H](C)c2ccccc2)cc(-c2ccc(=O)n(C)c2)n1 [Example 306, (R)-5-[2-(2-Fluoro-6-methyl-phenoxy)-6-(1-phenyl-ethylamino)-pyrimidin-4-yl]-1-methyl-1H-pyridin-2-one]
Cc1cccc(F)c1Oc1nc(N[C@@H]2CCCc3ccccc32)cc(-c2ccc(=O)n(C)c2)n1 [Example 307, (R)-5-[2-(2-Fluoro-6-methyl-phenoxy)-6-(1,2,3,4-tetrahydro-naphthalen-1-ylamino)-pyrimidin-4-yl]-1-methyl-1H-pyridin-2-one]
CCC[C@H](C)Nc1cc(-c2ccc(=O)n(C)c2)nc(Oc2c(C)cccc2F)n1 [Example 308]
Cc1cccc(F)c1Oc1nc(NCCC(C)C)cc(-c2ccc(=O)n(C)c2)n1 [Example 309, 5-[2-(2-Fluoro-6-methyl-phenoxy)-6-(3-methyl-butylamino)-pyrimidin-4-yl]-1-methyl-1H-pyridin-2-one]
Cc1cccc(F)c1Oc1nc(N[C@@H](C)c2ccccc2)cc(-c2ccc(=O)n(C)c2)n1 [Example 310, (S)-5-[2-(2-Fluoro-6-methyl-phenoxy)-6-(1-phenyl-ethylamino)-pyrimidin-4-yl]-1-methyl-1H-pyridin-2-one]
Cc1cccc(F)c1Oc1nc(N[C@H]2CCCc3ccccc32)cc(-c2ccc(=O)n(C)c2)n1 [Example 311, (S)-5-[2-(2-Fluoro-6-methyl-phenoxy)-6-(1,2,3,4-tetrahydro-naphthalen-1-ylamino)-pyrimidin-4-yl]-1-methyl-1H-pyridin-2-one]
CCCCNc1cc(-c2ccc(=O)n(C)c2)nc(Oc2c(C)cccc2Cl)n1 [Example 312, 5-[6-Butylamino-2-(2-chloro-6-methyl-phenoxy)-pyrimidin-4-yl]-1-methyl-1H-pyridin-2-one]
CCC[C@@H](C)Nc1cc(-c2ccc(=O)n(C)c2)nc(Oc2c(C)cccc2Cl)n1 [Example 313, (R)-5-[2-(2-Chloro-6-methyl-phenoxy)-6-(1-methyl-butylamino)-pyrimidin-4-yl]-1-methyl-1H-pyridin-2-one]
CCC[C@H](C)Nc1cc(-c2ccc(=O)n(C)c2)nc(Oc2c(C)cccc2Cl)n1 [Example 314, (S)-5-[2-(2-Chloro-6-methyl-phenoxy)-6-(1-methyl-butylamino)-pyrimidin-4-yl]-1-methyl-1H-pyridin-2-one]
Cc1cccc(Cl)c1Oc1nc(NCCC(C)C)cc(-c2ccc(=O)n(C)c2)n1 [Example 315, 5-[2-(2-Chloro-6-methyl-phenoxy)-6-(3-methyl-butylamino)-pyrimidin-4-yl]-1-methyl-1H-pyridin-2-one]
